Measurements taken from patent US20080107625A1, “Inhibitors of Hepatitis C Virus” (Bristol-Myers Squibb Company, priority 2006, published 2008).

Target: T1, HCV NS3/4A protease complex, J4L6S strain (Hepatitis C virus genotype 1b, UniProt O92972, C1454S/C1711G)
T1 construct: recombinant HCV NS3/4A protease complex (amino acids 1027 to 1711) for these strains; His-tag (inferred from pET21b vector and Ni-NTA purification); made in house; host or cells: Escherichia coli BL21 (DE3), pET21b
Assay: FRET peptide assay to monitor HCV NS3/4A proteolytic activity (J4L6S strain)
Assay type: biochemical
Settings: J4L6S strain (1b genotype)
Source text: HCV NS3 protease complexes, derived from the BMS strain, H77 strain or J4L6S strain, were generated, as described below. These purified recombinant proteins were generated for use in a homogeneous assay (see below) to provide an indication of how effective compounds of the present disclosure would be in inhibiting HCV NS3 proteolytic activity.
The H77 and J4L6S strains were used for production of recombinant NS3/4A protease complexes. DNA encoding the recombinant HCV NS3/4A protease complex (amino acids 1027 to 1711) for these strains were manipulated as described by P. Gallinari et al. (see Gallinari P, Paolini C, Brennan D, Nardi C, Steinkuhler C, De Francesco R. Biochemistry. 38(17):5620-32, (1999)). Briefly, a three-lysine solubilizing tail was added at the 3′-end of the NS4A coding region. The cysteine in the P1 position of the NS4A-NS4B cleavage site (amino acid 1711) was changed to a glycine to avoid the proteolytic cleavage of the lysine tag. Furthermore, a cysteine to serine mutation was introduced by PCR at amino acid position 1454 to prevent the autolytic cleavage in the NS3 helicase domain. […]

T1 sequence (O92972 1027-1711 C1454S/C1711G, one chain of several): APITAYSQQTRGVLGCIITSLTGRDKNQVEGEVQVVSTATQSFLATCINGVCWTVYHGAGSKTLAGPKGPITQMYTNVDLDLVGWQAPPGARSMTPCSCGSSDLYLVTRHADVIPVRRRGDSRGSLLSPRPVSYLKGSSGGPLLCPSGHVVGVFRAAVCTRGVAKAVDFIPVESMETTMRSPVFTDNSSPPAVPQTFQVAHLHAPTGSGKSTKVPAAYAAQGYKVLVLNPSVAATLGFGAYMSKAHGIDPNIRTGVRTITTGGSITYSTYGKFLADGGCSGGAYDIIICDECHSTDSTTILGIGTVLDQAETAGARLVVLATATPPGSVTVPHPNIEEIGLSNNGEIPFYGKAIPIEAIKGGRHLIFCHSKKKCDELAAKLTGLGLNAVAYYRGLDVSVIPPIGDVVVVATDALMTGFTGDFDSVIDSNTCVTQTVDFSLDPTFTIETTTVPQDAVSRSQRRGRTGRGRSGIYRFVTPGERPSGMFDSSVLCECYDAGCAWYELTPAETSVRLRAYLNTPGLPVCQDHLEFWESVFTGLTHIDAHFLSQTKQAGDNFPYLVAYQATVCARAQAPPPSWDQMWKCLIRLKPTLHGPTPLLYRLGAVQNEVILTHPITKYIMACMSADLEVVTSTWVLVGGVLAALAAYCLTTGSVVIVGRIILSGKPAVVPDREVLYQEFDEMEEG

## CC(C)(C)OC(=O)N[C@H]1CN(C2CC2)CCC/C=C\C2C[C@@]2(C(=O)NS(=O)(=O)C2CC2)NC(=O)[C@@H]2C[C@@H](Oc3ccccn3)CN2C1=O (stereo partly shown) [Compound 1]
  IC50: 12 nM
